Data as given in ChEMBL document CHEMBL2157860, “Optimization of a potent class of arylamide colony-stimulating factor-1 receptor inhibitors leading to anti-inflammatory clinical candidate 4-cyano-N-[2-(1-cyclohexen-1-yl)-4-[1-[(dimethylamino)acetyl]-4-piperidinyl]phenyl]-1H-imidazole-2-carboxamide (JNJ-28312141)” (J Med Chem, 2011).
Converted amounts (≈) assume the structure as drawn.

How the values were obtained:
[1] = Metabolic stability in mouse liver microsomes assessed as compound remaining after 10 mins; format: ADME, Microsome; settings: read-out: Stability
[2] = AUClast in CD1 mouse at 5 mg/kg, po; format: ADME, organism-based; design: time 0 - last, dose 5 mg/kg, route oral; settings: plasma
[3] = (§1) Half life in CD1 mouse at 0.5 mg/kg, iv; format: ADME, organism-based; design: dose 0.5 mg/kg, route intravenous; settings: CD1, mouse, in vivo
[4] = Cmax in CD1 mouse at 5 mg/kg, po; format: ADME, organism-based; design: dose 5 mg/kg, route oral; settings: in vivo
[5] = Half life in CD1 mouse at 5 mg/kg, po; format: ADME, organism-based; design: dose 5 mg/kg, route oral; settings: in vivo
[6] = Solubility of the compound in PBS; format: physicochemical
[7] = Metabolic stability in human liver microsomes assessed as compound remaining after 10 mins; format: ADME, Microsome; settings: read-out: Stability
[8] = Oral bioavailability in CD1 mouse at 5 mg/kg; format: ADME, organism-based; settings: in vivo
[9] = (§2) Apparent volume of distribution in CD1 mouse at 0.5 mg/kg, iv; format: ADME, organism-based; design: dose 0.5 mg/kg, route intravenous; settings: CD1, mouse, in vivo, read-out: Vz
[10] = Clearance in CD1 mouse at 0.5 mg/kg, iv; format: ADME, organism-based; design: dose 0.5 mg/kg, route intravenous; settings: in vivo
Liver = test: Metabolic stability in mouse liver microsomes assessed as glutathione conjugation at 20 to 40 uM after 1 hr by LC/MS analysis; format: ADME, Microsome
Mus musculus [11] = test: (§3) Drug uptake in CD1 mouse at 5 mg/kg, po after 8 hrs; format: ADME, organism-based; design: dose 5 mg/kg, route oral; settings: mouse, in vivo, 8 h, BLD = below limit of detection
[12] = Tmax in CD1 mouse at 5 mg/kg, po; format: ADME, organism-based; design: dose 5 mg/kg, route oral; settings: in vivo
[13] = Drug uptake in CD1 mouse at 5 mg/kg, po after 4 hrs; format: ADME, organism-based; design: dose 5 mg/kg, route oral; settings: in vivo, read-out: Drug uptake
Mus musculus [14] = test: as §1; format: ADME, organism-based; design: dose 0.5 mg/kg, route intravenous; settings: mouse, in vivo
Mus musculus [15] = test: as §2; format: ADME, organism-based; design: dose 0.5 mg/kg, route intravenous; settings: mouse, in vivo
[16] = as §3; format: ADME, organism-based; design: dose 5 mg/kg, route oral; settings: CD1, mouse, in vivo, read-out: Drug uptake

Structure (SMILES): CN(C)CC(=O)N1CCC(c2ccc(NC(=O)c3nc(C#N)c[nH]3)c(C3=CCCCC3)c2)CC1
- remaining at 10 min [1]: 81%
- AUC(0-t) [2]: 1020 ng·h/mL
- half-life [3]: 1.36 h
- Cmax [4]: 296 ng/mL
- half-life [5]: 2.33 h
- solubility [6]: 37.3 µM (≈ 17.2 µg/mL)
- remaining at 10 min [7]: 87%
- bioavailability [8]: 83%
- Vd [9]: 7.11 L/kg
- clearance [10]: 60.6 mL/min/kg

Structure (SMILES): N#Cc1c[nH]c(C(=O)Nc2ccc(C3CCNCC3)cc2C2=CCCCC2)n1.O=C(O)C(F)(F)F
- Stability (Liver): Stable
- remaining at 10 min [1]: 96%
- Drug uptake (Mus musculus [11]): BLD
- AUC(0-t) [2]: 95.2 ng·h/mL
- half-life [3]: 7.16 h
- Cmax [4]: 50 ng/mL
- half-life [5]: 2 h
- solubility [6]: 38.8 µM
- remaining at 10 min [7]: 100%
- Tmax [12]: 0.25 h
- bioavailability [8]: 12%
- concentration at 4 h [13]: 7 ng/mL
- Vd [9]: 32 L/kg
- clearance [10]: 51.7 mL/min/kg

Structure (SMILES): N#Cc1c[nH]c(C(=O)Nc2ccc(C3CCN(c4ccccn4)CC3)cc2C2=CCCCC2)n1
- remaining at 10 min [1]: 77%
- remaining at 10 min [7]: 77%

Structure (SMILES): N#CCCN1CCC(c2ccc(NC(=O)c3nc(C#N)c[nH]3)c(C3=CCCCC3)c2)CC1
- remaining at 10 min [1]: 93%
- solubility [6]: 11.8 µM (≈ 5.06 µg/mL)
- remaining at 10 min [7]: 100%

Structure (SMILES): N#Cc1c[nH]c(C(=O)Nc2ccc(C3CCN(Cc4ccccn4)CC3)cc2C2=CCCCC2)n1
- remaining at 10 min [1]: 79%
- remaining at 10 min [7]: 75%

Structure (SMILES): N#Cc1c[nH]c(C(=O)Nc2ccc(C3CCN(CCO)CC3)cc2C2=CCCCC2)n1
- remaining at 10 min [1]: 89%
- solubility [6]: > 40 µM
- remaining at 10 min [7]: 100%

Structure (SMILES): N#Cc1c[nH]c(C(=O)Nc2ccc(C3CCN(C(CO)CO)CC3)cc2C2=CCCCC2)n1
- remaining at 10 min [1]: 94%
- remaining at 10 min [7]: 100%

Structure (SMILES): CS(=O)(=O)CCN1CCC(c2ccc(NC(=O)c3nc(C#N)c[nH]3)c(C3=CCCCC3)c2)CC1
- remaining at 10 min [1]: 98%
- AUC(0-t) [2]: 2130 ng·h/mL
- half-life [3]: 1.44 h
- Cmax [4]: 866 ng/mL
- half-life [5]: 1.55 h
- solubility [6]: 4.2 µM (≈ 2.02 µg/mL)
- remaining at 10 min [7]: 94%
- bioavailability [8]: 88%
- Vd [9]: 3.84 L/kg
- clearance [10]: 30.7 mL/min/kg

Structure (SMILES): N#Cc1c[nH]c(C(=O)Nc2ccc(C3CCN(CC(N)=O)CC3)cc2C2=CCCCC2)n1
- remaining at 10 min [1]: 79%
- AUC(0-t) [2]: 141 ng·h/mL
- half-life [3]: 1.39 h
- Cmax [4]: 55 ng/mL
- half-life [5]: 0.88 h
- solubility [6]: 28.6 µM (≈ 12.4 µg/mL)
- remaining at 10 min [7]: 81%
- bioavailability [8]: 9.8%
- Vd [9]: 6.43 L/kg
- clearance [10]: 53.3 mL/min/kg

Structure (SMILES): N#Cc1c[nH]c(C(=O)Nc2ccc(C3CCN(CC(=O)O)CC3)cc2C2=CCCCC2)n1
- remaining at 10 min [1]: 70%
- remaining at 10 min [7]: 98%

Structure (SMILES): N#Cc1c[nH]c(C(=O)Nc2ccc(C3CCN(CCN4CCOCC4)CC3)cc2C2=CCCCC2)n1
- remaining at 10 min [1]: 96%
- AUC(0-t) [2]: 1550 ng·h/mL
- t1/2 (Mus musculus [14]): 0.23 h
- Cmax [4]: 461 ng/mL
- half-life [5]: 2.37 h
- solubility [6]: 25.9 µM (≈ 12.7 µg/mL)
- remaining at 10 min [7]: 77%
- bioavailability [8]: 101%
- Vz (Mus musculus [15]): 8.99 L/kg

Structure (SMILES): N#Cc1c[nH]c(C(=O)Nc2ccc(C3CCN(C(=O)c4cccnc4)CC3)cc2C2=CCCCC2)n1
- remaining at 10 min [1]: 66%
- remaining at 10 min [7]: 56%

Structure (SMILES): N#Cc1c[nH]c(C(=O)Nc2ccc(C3CCN(C(=O)[C@H](O)CO)CC3)cc2C2=CCCCC2)n1
- remaining at 10 min [1]: 100%
- remaining at 10 min [7]: 89%

Structure (SMILES): N#Cc1c[nH]c(C(=O)Nc2ccc(C3CCN(C(=O)CNCCO)CC3)cc2C2=CCCCC2)n1
- remaining at 10 min [1]: 79%
- remaining at 10 min [7]: 67%

Structure (SMILES): CN(CCO)CC(=O)N1CCC(c2ccc(NC(=O)c3nc(C#N)c[nH]3)c(C3=CCCCC3)c2)CC1
- remaining at 10 min [1]: 60%
- remaining at 10 min [7]: 69%

Structure (SMILES): CS(=O)(=O)CC(=O)N1CCC(c2ccc(NC(=O)c3nc(C#N)c[nH]3)c(C3=CCCCC3)c2)CC1
- remaining at 10 min [1]: 86%
- AUC(0-t) [2]: 125 ng·h/mL
- half-life [3]: 1.2 h
- Cmax [4]: 24 ng/mL
- half-life [5]: 1.55 h
- solubility [6]: 0.91 µM (≈ 0.451 µg/mL)
- remaining at 10 min [7]: 100%
- bioavailability [8]: 2.3%
- Vd [9]: 1.58 L/kg
- clearance [10]: 23.9 mL/min/kg

Structure (SMILES): N#Cc1c[nH]c(C(=O)Nc2ccc(C3CCN(C(=O)c4ccc[n+]([O-])c4)CC3)cc2C2=CCCCC2)n1
- remaining at 10 min [1]: 89%
- remaining at 10 min [7]: 100%

Structure (SMILES): N#Cc1c[nH]c(C(=O)Nc2ccc(C3CCN(C(=O)c4cc[n+]([O-])cc4)CC3)cc2C2=CCCCC2)n1
- remaining at 10 min [1]: 92%
- remaining at 10 min [7]: 100%

Structure (SMILES): N#Cc1c[nH]c(C(=O)Nc2ccc(C3CCN(C(=O)Cc4c[nH]cn4)CC3)cc2C2=CCCCC2)n1
- remaining at 10 min [1]: 100%
- remaining at 10 min [7]: 89%

Structure (SMILES): Cn1cnc(CC(=O)N2CCC(c3ccc(NC(=O)c4nc(C#N)c[nH]4)c(C4=CCCCC4)c3)CC2)c1
- remaining at 10 min [1]: 90%
- AUC(0-t) [2]: 101 ng·h/mL
- half-life [3]: 0.54 h
- Cmax [4]: 81 ng/mL
- half-life [5]: 0.4 h
- solubility [6]: 36.7 µM (≈ 18.3 µg/mL)
- remaining at 10 min [7]: 82%
- bioavailability [8]: 13%
- Vd [9]: 3.85 L/kg
- clearance [10]: 81.8 mL/min/kg

Structure (SMILES): N#Cc1c[nH]c(C(=O)Nc2ccc(C3CCN(C(=O)Cc4ccccn4)CC3)cc2C2=CCCCC2)n1
- remaining at 10 min [1]: 37%
- solubility [6]: 1.6 µM (≈ 0.791 µg/mL)
- remaining at 10 min [7]: 34%

Structure (SMILES): N#Cc1c[nH]c(C(=O)Nc2ccc(C3CCN(C(=O)Cc4cccnc4)CC3)cc2C2=CCCCC2)n1
- remaining at 10 min [1]: 21%
- solubility [6]: 10.4 µM (≈ 5.14 µg/mL)
- remaining at 10 min [7]: 28%

Structure (SMILES): N#Cc1c[nH]c(C(=O)Nc2ccc(C3CCN(C(=O)Cc4ccncc4)CC3)cc2C2=CCCCC2)n1
- remaining at 10 min [1]: 24%
- AUC(0-t) [2]: 68 ng·h/mL
- half-life [3]: 0.41 h
- Cmax [4]: 118 ng/mL
- half-life [5]: 0.23 h
- solubility [6]: 0.39 µM (≈ 0.193 µg/mL)
- remaining at 10 min [7]: 11%
- bioavailability [8]: 18%
- Vd [9]: 7.27 L/kg
- clearance [10]: 205 mL/min/kg

Structure (SMILES): N#Cc1c[nH]c(C(=O)Nc2ccc(C3CCN(C(=O)CCN4CCOCC4)CC3)cc2C2=CCCCC2)n1
- remaining at 10 min [1]: 23%
- remaining at 10 min [7]: 57%

Structure (SMILES): N#Cc1c[nH]c(C(=O)Nc2ccc(C3CCN(C(=O)CN4CCOCC4)CC3)cc2C2=CCCCC2)n1
- remaining at 10 min [1]: 23%
- remaining at 10 min [7]: 66%

Structure (SMILES): CC(C)(N)C(=O)N1CCC(c2ccc(NC(=O)c3nc(C#N)c[nH]3)c(C3=CCCCC3)c2)CC1
- remaining at 10 min [1]: 93%
- remaining at 10 min [7]: 94%

Structure (SMILES): N#Cc1c[nH]c(C(=O)Nc2ccc(C3CCN(C(=O)NCCO)CC3)cc2C2=CCCCC2)n1
- remaining at 10 min [1]: 61%
- AUC(0-t) [2]: 129 ng·h/mL
- half-life [3]: 2.41 h
- Cmax [4]: 24 ng/mL
- half-life [5]: 1.63 h
- solubility [6]: 8.2 µM (≈ 3.79 µg/mL)
- remaining at 10 min [7]: 80%
- bioavailability [8]: 9.3%
- Vd [9]: 10.3 L/kg
- clearance [10]: 49.2 mL/min/kg

Structure (SMILES): N#Cc1c[nH]c(C(=O)Nc2ccc(C3CCN(C(N)=O)CC3)cc2C2=CCCCC2)n1
- remaining at 10 min [1]: 70%
- remaining at 10 min [7]: 78%

Structure (SMILES): CC1CCN(c2cc(N3CCN(C)CC3)ccc2NC(=O)c2ccc(C#N)o2)CC1
- concentration at 8 h [16]: 64 ng/mL
- AUC(0-t) [2]: 1160 ng·h/mL
- half-life [3]: 3 h
- Cmax [4]: 285 ng/mL
- half-life [5]: 3.1 h
- Tmax [12]: 0.5 h
- bioavailability [8]: 75%
- concentration at 4 h [13]: 183 ng/mL
- Vd [9]: 12.3 L/kg
- clearance [10]: 46 mL/min/kg

Structure (SMILES): CC(=O)N1CCC(c2ccc(NC(=O)c3nc(C#N)c[nH]3)c(C3=CCCCC3)c2)CC1
- Stability (Liver): Stable
- remaining at 10 min [1]: 86%
- concentration at 8 h [16]: 9 ng/mL
- AUC(0-t) [2]: 454 ng·h/mL
- half-life [3]: 1.2 h
- Cmax [4]: 209 ng/mL
- half-life [5]: 1.88 h
- solubility [6]: 26.1 µM (≈ 10.9 µg/mL)
- remaining at 10 min [7]: 95%
- Tmax [12]: 0.5 h
- bioavailability [8]: 15%
- concentration at 4 h [13]: 54 ng/mL
- Vd [9]: 2.8 L/kg
- clearance [10]: 27 mL/min/kg
